≈ marks a conversion by molar mass, not a printed value. Like-named read-outs stand apart in the source and are kept apart here.
Tests used:
Type in all cases: cell-based
[1] = system: Enterobacter spp.; assay: MIC by agar dilution (NCCLS), 322 nosocomial Gram negative isolates, Athens 1998; details: Enterobacter, n = 57 isolates
[2] = system: Mycobacterium tuberculosis (MTB); assay: MIC by proportions method (NCCLS M24-T, 1995), 82 MTB strains; details: Mycobacterium tuberculosis; 82 MTB strains
[3] = system: Hafnia alvei; assay: MIC by agar dilution (NCCLS M7-A4), 288 enteropathogenic isolates, gemifloxacin and 15 other antimicrobials; details: Hafnia alvei N= 32
[4] = system: Shigella spp.; assay: MIC by agar dilution (NCCLS M7-A4), 288 enteropathogenic isolates, eight quinolones; details: Shigella spp. (n = 21)
[5] = system: Streptococcus pneumoniae; assay: MIC by broth microdilution (NCCLS), dried MicroScan panels, clinical isolates 1998-1999; details: for MIC90: Streptococcus pneumoniae
[6] = system: Hafnia alvei; assay: MIC by agar dilution (NCCLS M7-A4), 288 enteropathogenic isolates, eight quinolones; details: Hafnia alvei (n = 32)
[7] = system: Enterococcus faecium; assay: MIC by agar macrodilution (NCCLS), 373 Gram positive isolates, Athens 1998
[8] = system: Shigella spp.; assay: MIC by agar dilution (NCCLS M7-A4), 288 enteropathogenic isolates, gemifloxacin and 15 other antimicrobials; details: Shigella spp. N= 21
In short: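 Agar dilution with ~10^4 cfu/spot inoculum; plates incubated aerobically at 35 °C for 24 h, except C. jejuni, held microaerophilically for 48 h. MIC taken as lowest antibiotic concentration with no visible growth.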

[9] = 24 h, read-out: MIC (mg/L) Range
[10] = Streptococcus pneumoniae (302 isolates)

Which results are given for Cc1c(F)c(N2CCNC(C)C2)cc2c1c(=O)c(C(=O)O)cn2C1CC1 (stereo not drawn) [Grepafloxacin, grepafloxacin]?
MIC50 ([1]; read-out: MIC50): 0.06 µg/mL (≈ 0.167 µM); MIC90 ([1]; read-out: MIC90): > 64 µg/mL; MIC90 [2]: 2 µg/mL (≈ 5.56 µM); MIC [3, 9]: 0.015 to 0.06 mg/L (≈ 0.0417 to 0.167 µM); MIC ([3]; read-out: MIC (mg/L) 50%): 0.03 mg/L (≈ 0.0835 µM); MIC ([3]; read-out: MIC (mg/L) 90%): 0.06 mg/L (≈ 0.167 µM); % Susceptible [4]: 100%; MIC50 [4]: ≤ 0.015 µg/mL; MIC90 [4]: 0.03 µg/mL (≈ 0.0835 µM); MIC Range [4]: ≤0.015 to 0.03 µg/mL; MIC50 [5, 10]: 0.03 µg/mL (≈ 0.0835 µM); MIC Range [5, 10]: ≤0.015 to 0.25 µg/mL; MIC90 ([5]; Erythromycin-resistant (86)): 0.12 µg/mL (≈ 0.334 µM); MIC90 ([5]; Erythromycin-sensitive (216)): 0.25 µg/mL (≈ 0.696 µM); MIC90 ([5]; Penicillin-intermediate (124)): 0.12 µg/mL (≈ 0.334 µM); MIC90 ([5]; Penicillin-resistant (80)): 0.12 µg/mL (≈ 0.334 µM); MIC90 ([5]; Penicillin-sensitive (98)): 0.12 µg/mL (≈ 0.334 µM); MIC90 [5, 10]: 0.12 µg/mL (≈ 0.334 µM); % Susceptible [6]: 100%; MIC50 [6]: 0.03 µg/mL (≈ 0.0835 µM); MIC90 [6]: 0.06 µg/mL (≈ 0.167 µM); MIC Range [6]: ≤0.015 to 0.06 µg/mL; MIC distribution (µg/ml) 0.03 [7]: 0; MIC distribution (µg/ml) 0.06 [7]: 0; MIC distribution (µg/ml) 0.125 [7]: 0; MIC distribution (µg/ml) 0.25 [7]: 2; MIC distribution (µg/ml) 0.5 [7]: 4; MIC distribution (µg/ml) 1 [7]: 3; MIC distribution (µg/ml) 2 [7]: 0; MIC distribution (µg/ml) 4 [7]: 0; MIC distribution (µg/ml) 8 [7]: 1; MIC distribution (µg/ml) 16 [7]: 1; MIC distribution (µg/ml) ≤0.015 [7]: 0; MIC distribution (µg/ml) ≥32 [7]: 3; MIC50 ([7]; Enterococcus faecium, n = 14 isolates, read-out: MIC50): 2 µg/mL (≈ 5.56 µM); MIC90 ([7]; Enterococcus faecium, n = 14 isolates, read-out: MIC90): ≥ 32 µg/mL; MIC [8, 9]: 0.015 to 0.03 mg/L (≈ 0.0417 to 0.0835 µM); MIC ([8]; read-out: MIC (mg/L) 50%): ≤ 0.015 mg/L; MIC ([8]; read-out: MIC (mg/L) 90%): 0.03 mg/L (≈ 0.0835 µM)
